Where two headings read alike, the source gives them in different places. Square brackets hold non-standard residues; d marks the D form. Peptide text beside a SMILES is read from it. * marks the point of attachment. F2Pmp = N[C@@H](Cc1ccc(C(F)(F)P(=O)(O)O)cc1)C(=O)O; pY = N[C@@H](Cc1ccc(OP(=O)(O)O)cc1)C(=O)O; L‑OMT = L-O-malonyltyrosine; X1 = O=C(O)C(C(=O)O)*
Legend:
[1] = target: T1, N-terminal SH-PTP2 SH2 domain (Homo sapiens, UniProt Q06124); conditions: X = pTyr or L-F2Pmp; previously reported (Xiao 1994); cited from earlier work
T1 sequence (Q06124 6-102 limits assumed): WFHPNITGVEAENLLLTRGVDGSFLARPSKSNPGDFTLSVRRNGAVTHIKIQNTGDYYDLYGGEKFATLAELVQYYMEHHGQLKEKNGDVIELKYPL

[2] = test system: SH-PTP2 mediated mitogenic signaling in rat 1 fibroblasts; conditions: Xiao 1994; cited from earlier work
[3] = target: T2, recombinant PTP 1B (Homo sapiens, UniProt P18031); assay: Insulin receptor dephosphorylation by recombinant PTP 1B; assay type: biochemical; conditions: 32P-labeled autophosphorylated insulin receptor as substrate; read-out: inhibition constant / IC50 against PTP 1B dephosphorylation of insulin receptor
T2 sequence (P18031 1-435): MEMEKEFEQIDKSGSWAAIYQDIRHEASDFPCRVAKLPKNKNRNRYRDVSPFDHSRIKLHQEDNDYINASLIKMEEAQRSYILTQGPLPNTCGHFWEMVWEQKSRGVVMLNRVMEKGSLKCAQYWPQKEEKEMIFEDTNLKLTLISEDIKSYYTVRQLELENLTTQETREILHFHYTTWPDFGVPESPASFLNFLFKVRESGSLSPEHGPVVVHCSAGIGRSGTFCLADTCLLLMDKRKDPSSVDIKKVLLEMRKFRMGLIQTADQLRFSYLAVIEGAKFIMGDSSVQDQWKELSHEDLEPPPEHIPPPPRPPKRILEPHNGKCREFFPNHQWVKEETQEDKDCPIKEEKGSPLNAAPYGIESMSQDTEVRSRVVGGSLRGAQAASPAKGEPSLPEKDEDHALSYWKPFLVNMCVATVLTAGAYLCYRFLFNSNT
Procedure: WGA-purified human insulin receptors were autophosphorylated with [γ-^32 P]ATP as previously described (Liotta, A.S., et al., J. Biol. Chem. 269:22996-23001 (1994)), and this ^32 P-labeled insulin receptor was used as substrate for the assay of PTP 1B activity, essentially following the method described by Burke et al. (Burke, T. R. Jr., Biochem, Biophys. Res. Commun. 204:129-134 (1994)). In brief, ^32 P-labeled autophosphorylated insulin receptors (10 μg/ml) were incubated with 0.5 μg/ml recombinant PTP 1B at 22° C. in a 100 μl reaction containing 50 mM HEPES, pH 7.5, 0.1 mg/ml BSA, 5 mM DTT, 5 mM EDTA, 0.05% Triton X-100, in the absence or presence of various peptides at the indicated concentrations. […] The ^32 P remaining in the 95 kDa insulin receptor β-subunit was quantified by Betagen counting of the fixed and dried gels.
The peptide Ac-D-A-D-E-OMT-L-amide (SEQ. ID. NO. 8) was then examined for inhibitor potency against PTB-1B dephosphorylation of phosphorylated insulin receptor. […] The ^32 P remaining in the 95 kDa insulin receptor β-subunit was quantified by Betagen counting of the fixed and dried gels. […]

[4] = target: C-terminal SH2 domain of PI 3-kinase p85 (Homo sapiens, UniProt P27986); assay: SH2 domain competition binding assay, PI 3-kinase p85 C-terminal SH2; conditions: X = L-OMT; GST/SH2 fusion vs [125I] IRS-1 pY628 phosphopeptide; read-out: IC50 ± S.E., p85 (C-terminal) SH2 domain
Procedure: (§1) Details of the […] domain competition assay are described by Piccione, E., et al., Biochemistry 32:3197-3202 (1993). Briefly, four distinct assays were used to determine relative SH2 domain affinities for pTyr analogues vs. high affinity phosphopeptide ligands. In each assay a glutathione S-transferase (GST)/SH2 domain fusion protein was paired with an appropriate high-affinity [^125 I]Bolton-Hunter radiolabeled phosphopeptide, and varying concentrations of unlabeled peptides were added as competitors. The C-terminal SH2 domain of PI 3-kinase p85 was paired with IRS-1pY628, GNGDpYMPMSPK (SEQ ID NO. 5) (See Piccione, E., et al., Biochemistry 32:3197-3202 (1993)), the Src SH2 domain was paired with hmt pY324, KEPQpYEEIPIYL (SEQ ID NO. 6) (See Payne, G., et al., Proc. Natl. Acad. Sci. USA 90:4902-4906 (1993), the PLCγ-C SH2 domain was paired with PDGF pY1021, DNDpYIIPLPDPK (SEQ ID NO. 7) (See Piccione, E., et al., Biochemistry 32:3197-3202 (1993)), and the Lck SH2 domain was paired with the hmTpY324 sequence similar to assays conducted on the Src SH2 domain. An underline denotes the position of the [^125 I]Bolton-Hunter modified lysine. […] Following centrifugation for 5 min at 12,000 g, supematant solutions were removed by aspiration and [^125 I]radioactivity associated with the unwashed pellets was determined with a γ-counter.

[5] = target: T3, Src SH2 domain (Homo sapiens, UniProt P12931); assay: SH2 domain competition binding assay, Src SH2; conditions: X = L-OMT; GST/SH2 fusion vs [125I] hmT pY324 phosphopeptide; read-out: IC50 ± S.E., Src SH2 domain
T3 construct: the Src SH2 domain was paired with hmt pY324
Procedure: as §1

[6] = target: T4, Grb2 SH2 domain (Homo sapiens, UniProt P62993); assay: SH2 domain competition binding assay, Grb2 SH2
T4 construct: against the Grb2 SH2 domain construct

[7] = target: T1, N-terminal SH-PTP2 SH2 domain; assay: SH2 domain competition binding assay, SH-PTP2 N-terminal SH2; conditions: X = L-OMT; read-out: IC50 ± S.E., SH-PTP2 (N-terminal) SH2 domain

Q: With “10 (X = L-F2Pmp): Ac-L-N-X-I-D-L-D-L-V-amide with X = L-F2Pmp in place of L-OMT (Ac-LN[F2Pmp]IDLDLV-NH2; SMILES CC[C@H](C)[C@H](NC(=O)[C@H](Cc1ccc(C(F)(F)P(=O)(O)O)cc1)NC(=O)[C@H](CC(N)=O)NC(=O)[C@H](CC(C)C)NC(C)=O)C(=O)N[C@@H](CC(=O)O)C(=O)N[C@@H](CC(C)C)C(=O)N[C@@H](CC(=O)O)C(=O)N[C@@H](CC(C)C)C(=O)N[C@H](C(N)=O)C(C)C)” as the molecule, how does the IC50 [1] read?
A: 23 µM

Q: And the “effect on SH-PTP2 mediated mitogenic signaling” value [2]?
A: block SH-PTP2 mediated mitogenic signaling

Q: Which IC50 [1] does the source give for “10 (X = pTyr): Ac-L-N-X-I-D-L-D-L-V-amide with X = pTyr in place of L-OMT (Ac-LN[pY]IDLDLV-NH2; SMILES CC[C@H](C)[C@H](NC(=O)[C@H](Cc1ccc(OP(=O)(O)O)cc1)NC(=O)[C@H](CC(N)=O)NC(=O)[C@H](CC(C)C)NC(C)=O)C(=O)N[C@@H](CC(=O)O)C(=O)N[C@@H](CC(C)C)C(=O)N[C@@H](CC(=O)O)C(=O)N[C@@H](CC(C)C)C(=O)N[C@H](C(N)=O)C(C)C)” here?
A: 4 µM

Q: Which IC50 [3] does the source give for `CC(=O)N[C@@H](CC(=O)O)C(=O)N[C@@H](C)C(=O)N[C@@H](CC(=O)O)C(=O)N[C@@H](CCC(=O)O)C(=O)N[C@@H](Cc1ccc(OC(C(=O)O)C(=O)O)cc1)C(=O)N[C@@H](CC(C)C)C(N)=O` [Ac-D-A-D-E-OMT-L-amide, Ac-Asp-Ala-Asp-Glu-[L-OMT]-Leu-amide] (Ac-DADEY(X1)L-NH2) here?
A: ~10 µM

Q: For `CSCC[C@H](NC(=O)[C@@H]1CCCN1C(=O)[C@@H](NC(=O)[C@H](Cc1ccc(OC(C(=O)O)C(=O)O)cc1)NC(=O)[C@H](CC(=O)O)NC(C)=O)C(C)C)C(=O)N[C@@H](CC(C)C)C(N)=O` [peptide no. 6, Ac-Asp-[L-OMT]-Val-Pro-Met-Leu-amide] (Ac-DY(X1)VPML-NH2), which IC50 [4] is on record?
A: 14.2 µM

Q: With `CC[C@H](C)[C@H](NC(=O)[C@H](CCC(=O)O)NC(=O)[C@H](CCC(=O)O)NC(=O)[C@H](Cc1ccc(OC(C(=O)O)C(=O)O)cc1)NC(=O)[C@H](CCC(N)=O)NC(C)=O)C(=O)N1CCC[C@H]1C(N)=O` [peptide no. 7, Ac-Gln-[L-OMT]-Glu-Glu-Ile-Pro-amide] (Ac-QY(X1)EEIP-NH2) as the molecule, how does the IC50 [5] read?
A: > 200 µM

Q: For `CC[C@H](C)[C@H](NC(=O)[C@H](CC(N)=O)NC(=O)[C@@H](NC(=O)[C@H](Cc1ccc(OC(C(=O)O)C(=O)O)cc1)NC(=O)[C@H](CC(N)=O)NC(C)=O)C(C)C)C(=O)N[C@@H](CCC(=O)O)C(N)=O` [peptide no. 8, Ac-Asn-[L-OMT]-Val-Asn-Ile-Glu-amide] (Ac-NY(X1)VNIE-NH2), which “activity in Grb2 binding assay” value [6] is on record?
A: essentially inactive

Q: Which IC50 [7] does the source give for “Ac-Leu-Asn-[L-OMT]-Ile-Asp-Leu-Asp-Leu-Val-amide ({Ac-Leu-Asn-L‑OMT}-IDLDLV-NH2) [peptide no. 9]” here?
A: 22 µM

Reference: patent US5688992A, “O-malonyltryrosyl compounds, O-malonyltryrosyl compound-containing peptides, and use thereof” (The United States of America as represented by the …, priority 1995, dated 1997)
